Values of other authors, collected in US20080317886A1, “Compositions for Preventing and Reducing Delayed Onset Muscle Soreness” (priority 2005, published 2008).

Experiments:
[1] = tested on: muscle catabolism (3-methylhistidine); conditions: intense resistance-weight training
[2] = "in as little as"
[3] = HMB with 75 g glucose in water compared with HMB with water
[4] = tested on: muscle damage (blood CPK); conditions: men and women, 4-week weight training program
[5] = tested on: delayed onset muscle soreness; conditions: six days supplementation with 40 mg/kg HMB, single bout of exercise
muscle damage (CPK, LDH) = conditions: 3 g HMB per day, six weeks of training, 20 km run; compared to placebo
[6] = tested on: perceived muscle soreness; conditions: downhill running protocol

beta-hydroxy-beta-methylbutyrate [HMB]
plasma 3-MH [1]: significant decrease
time to increase of plasma levels [2]: 30 min
HMB excreted in the urine [3]: less
plasma HMB levels [3]: lower
decrease in blood CPK levels [4]: 2%
DOMS [5]: did not reduce
blood levels of CPK after the run (muscle damage (CPK, LDH)): reduced levels
blood levels of LDH after the run (muscle damage (CPK, LDH)): reduced levels
perceived muscle soreness [6]: reduced
strength loss [6]: less strength loss
